{"source": "patent US8642612B2", "about": "“Nicotinic desensitizers and methods of selecting, testing, and using them” (Potomac Pharmaceuticals, Inc., priority 2006, dated 2014)", "key": {"human α4β2 nAChRs [1]": {"target": "T1, human α4β2 nAChRs (Homo sapiens, UniProt P17787+P43681)", "T1 construct": "expressed in transfected cells; the efflux text says only stably transfected cells", "format": "cell-based", "details": "for Agonist Activity α4β2: stimulation of 86Rb+ efflux", "procedure": "(§1) In brief, cells were plated into 24-well plates coated with poly-D-lysine. […] The cells were then incubated in growth medium (0.5 ml/well) containing ^86Rb^+ (2 μCi/ml) for 4 hour at 37° C. The loading mixture was then aspirated, and the cells were washed four times with 1 ml buffer (15 mM HEPES, 140 mM NaCl, 2 mM KCl, 1 mM MgSO4, 1.8 mM CaCl2, 11 mM Glucose, pH 7.4). One ml of buffer with or without compounds to be tested was then added to each well. After incubation for 2 min, the assay buffer was collected for measurements of ^86Rb^+ released from the cells. Cells were then lysed by adding 1 ml of 100 mM NaOH to each well, and the lysate was collected for determination of the amount of ^86Rb^+ that was in the cells at the end of the efflux assay. Radioactivity of assay samples and lysates was measured by liquid scintillation counting. Total loading (cpm) was calculated as the sum of the assay sample and the lysate of each well. The amount of ^86Rb^+ efflux was expressed as a percentage of […] loaded. […] IC50 values were determined by nonlinear least-squares regression analyses (GraphPad, San Diego, Calif.).\n(§2) The agonist activities of ligands on nAChRs were assessed by measuring agonist-stimulated ^86Rb^+ efflux from stably transfected cells."}, "rat α3β4 nAChRs [2]": {"target": "T2, rat α3β4 nAChRs (Rattus norvegicus, UniProt P04757+P12392)", "T2 construct": "expressed in transfected cells; the efflux text says only stably transfected cells", "format": "cell-based", "details": "for Agonist Activity α3β4: stimulation of 86Rb+ efflux", "procedure": "as §1, §2"}, "rat α3β4 nAChRs [3]": {"target": "T2, rat α3β4 nAChRs", "assay": "[3H]epibatidine competition binding, rat α3β4 nAChRs expressed in HEK cells", "procedure": "(§3) Briefly, cultured cells at >80% confluence were removed from their flasks (80 cm^2) with a disposable cell scraper and placed in 10 ml of 50 mM Tris HCl buffer (pH 7.4, 4° C.). The cell suspension was centrifuged at 10,000×g for 5 min and the pellet was collected. For cells treated chronically with nicotinic agonists during culturing, the pellet was washed two more times by centrifugation in fresh buffer to remove residual drug. The cell pellet was then homogenized in 10 ml buffer with a polytron homogenizer (Model PT2100, 12 mm aggregate, 26,000 rpm, 20 seconds) and centrifuged at 36,000 g for 10 min at 4° C. The membrane pellet was resuspended in fresh buffer, and aliquots of the membrane preparation equivalent to 30 to 200 μg protein were used for binding assays. […] Bound and free ligands were separated by vacuum filtration through Whatman GF/C filters treated with 0.5% polyethylenimine. The filter-retained radioactivity was measured by liquid scintillation counting. Specific binding was defined as the difference between total binding and nonspecific binding. Data from saturation and competition binding assays were analyzed using Prism 4 (GraphPad Software, San Diego, Calif.).\n(§4) All ligand binding assays were carried out using rat or human nAChRs heterologously expressed in human cells or in native rat brain tissues."}, "rat α4β2 nAChRs": {"target": "T3, rat α4β2 nAChRs (Rattus norvegicus, UniProt P09483+P12390)", "T3 construct": "expressed in transfected cells; host or cells: HEK cells (membrane homogenates)", "assay": "[3H]epibatidine competition binding, rat α4β2 nAChRs expressed in HEK cells", "procedure": "as §3, with “drug.” for “drug. The cell pellet was then homogenized in 10 ml buffer with a polytron homogenizer (Model PT2100, 12 mm aggregate, 26,000 rpm, 20 seconds) and centrifuged at 36,000 g for 10 min at 4° C. The membrane pellet was resuspended in fresh buffer, and aliquots of the membrane preparation equivalent to 30 to 200 μg protein were used for binding assays.”\nas §4"}, "rat α3β4 nAChRs [4]": {"target": "T2, rat α3β4 nAChRs", "assay": "Inhibition of nicotine-stimulated 86Rb+ efflux, cells expressing rat α3β4 nAChRs", "format": "cell-based", "procedure": "as §1"}, "human α4β2 nAChRs [5]": {"target": "T1, human α4β2 nAChRs", "assay": "biochemical", "format": "binding", "procedure": "as §3, §4"}, "human α4β2 nAChRs [6]": {"target": "T1, human α4β2 nAChRs", "assay": "Inhibition of nicotine-stimulated 86Rb+ efflux, cells expressing human α4β2 nAChRs", "format": "cell-based", "procedure": "as §1"}, "[7]": {"details": "added simultaneously with nicotine"}}, "note": "Read-outs that look alike come from different tables or passages of the source.", "data": [{"molecule": "OCCCCC#Cc1cncc(OC[C@@H]2CCN2)c1", "note": "[Sazetidine-A, 6-(5-(((S)-azetidin-2-yl)methoxy)pyridin-3-yl)hex-5-yn-1-ol]", "values": [{"measurement": "EC50 for activation of channel function (86Rb+ efflux)", "setting": "human α4β2 nAChRs [1]; human α4β2 receptors, mean ± SEM, FIG. 2A", "result": "could not be calculated"}, {"measurement": "Agonist Activity α4β2", "setting": "human α4β2 nAChRs [1]", "result": "Not detected"}, {"measurement": "Agonist Activity α4β2", "setting": "human α4β2 nAChRs [1]; listed as sazetidine-A", "result": "no agonist activity"}, {"measurement": "EC50 for activation of channel function (86Rb+ efflux)", "setting": "rat α3β4 nAChRs [2]; rat α3β4 receptors, mean ± SEM, FIG. 2B", "result": "could not be calculated"}, {"measurement": "Agonist Activity α3β4", "setting": "rat α3β4 nAChRs [2]", "result": "Not detected"}, {"measurement": "Agonist Activity α3β4", "setting": "rat α3β4 nAChRs [2]; listed as sazetidine-A", "result": "no agonist activity"}, {"measurement": "Ki", "setting": "rat α3β4 nAChRs [3]", "result": 10000, "unit": "nM"}, {"measurement": "Ki", "setting": "rat α4β2 nAChRs", "result": "0.41 ± 0.16", "unit": "nM"}, {"measurement": "Selectivity (Ki ratio: rat α3β4/rat α4β2)", "setting": "rat α4β2 nAChRs; ratio of Ki values", "result": "24,000"}, {"measurement": "Ki", "setting": "rat α4β2 nAChRs; read-out: Equilibrium binding affinity (Ki, nM) α4β2, example tables, species not given", "result": 0.41, "unit": "nM"}, {"measurement": "blocking of α3β4 nAChRs", "setting": "rat α3β4 nAChRs [4]; 10 min preincubation", "result": "ineffective"}, {"measurement": "IC50", "setting": "rat α3β4 nAChRs [4]; Acute Antagonist Potency (IC50(A), nM) α3β4, applied simultaneously with nicotine", "result": "> 10000", "unit": "nM"}, {"measurement": "IC50", "setting": "rat α3β4 nAChRs [4]; Desensitization Potency (IC50(D,10 min), nM) α3β4, 10 min pretreatment before nicotine", "result": "> 10000", "unit": "nM"}, {"measurement": "IC50", "setting": "rat α3β4 nAChRs [4]; IC50 α3β4 nAChRs, 0 min Pretreatment, added simultaneously with 100 μM nicotine, mean ± SEM of 3 to 7 experiments", "result": "> 10000", "unit": "nM"}, {"measurement": "IC50", "setting": "rat α3β4 nAChRs [4]; IC50 α3β4 nAChRs, 10 min Pretreatment, 10 min preincubation, then 100 μM nicotine, mean ± SEM of 3 to 7 experiments", "result": "> 10000", "unit": "nM"}, {"measurement": "acute antagonist activity, blockade of nicotine-stimulated 86Rb+ efflux, α3β4", "setting": "rat α3β4 nAChRs [4]; [7]", "result": "no antagonist activity"}, {"measurement": "Ki", "setting": "human α4β2 nAChRs [5]", "result": "0.64 ± 0.32", "unit": "nM"}, {"measurement": "concentration that nearly completely inhibited nicotine activation of α4β2 receptors", "setting": "human α4β2 nAChRs [6]; 10 min preincubation", "result": "~200", "unit": "nM"}, {"measurement": "IC50", "setting": "human α4β2 nAChRs [6]; Acute Antagonist Potency (IC50(A), nM) α4β2, applied simultaneously with nicotine", "result": "≥ 10000", "unit": "nM"}, {"measurement": "IC50", "setting": "human α4β2 nAChRs [6]; Desensitization Potency (IC50(D,10 min), nM) α4β2, 10 min pretreatment before nicotine", "result": 26, "unit": "nM"}, {"measurement": "IC50", "setting": "human α4β2 nAChRs [6]; IC50 α4β2 nAChRs, 0 min Pretreatment, added simultaneously with 100 μM nicotine, mean ± SEM of 3 to 7 experiments", "result": "> 10000", "unit": "nM"}, {"measurement": "IC50", "setting": "human α4β2 nAChRs [6]; IC50 α4β2 nAChRs, 10 min Pretreatment, 10 min preincubation, then 100 μM nicotine, mean ± SEM of 3 to 7 experiments", "result": "~30", "unit": "nM"}, {"measurement": "acute antagonist activity, blockade of nicotine-stimulated 86Rb+ efflux, α4β2", "setting": "human α4β2 nAChRs [6]; [7]", "result": "no antagonist activity"}]}]}
